This passage reports IC50 and inhibition results from patent publication US20100267755A1, “PYRIMIDINE DERIVATIVES” (GLAXO GROUP LIMITED, priority 2001, published 2010).

Where only a bound is given, the exact number is not on record here.

For orientation: IC50 means the point on the concentration scale where inhibition reaches its midpoint. As usually defined, the inhibition is the drop in the measured response relative to a control, in per cent.

One assay has as its target T1, microsomal h-COX2 (Homo sapiens, UniProt P35354).
T1 construct: made in house; host or cells: baculovirus infected SF9 cells
T1 sequence (P35354 18-604): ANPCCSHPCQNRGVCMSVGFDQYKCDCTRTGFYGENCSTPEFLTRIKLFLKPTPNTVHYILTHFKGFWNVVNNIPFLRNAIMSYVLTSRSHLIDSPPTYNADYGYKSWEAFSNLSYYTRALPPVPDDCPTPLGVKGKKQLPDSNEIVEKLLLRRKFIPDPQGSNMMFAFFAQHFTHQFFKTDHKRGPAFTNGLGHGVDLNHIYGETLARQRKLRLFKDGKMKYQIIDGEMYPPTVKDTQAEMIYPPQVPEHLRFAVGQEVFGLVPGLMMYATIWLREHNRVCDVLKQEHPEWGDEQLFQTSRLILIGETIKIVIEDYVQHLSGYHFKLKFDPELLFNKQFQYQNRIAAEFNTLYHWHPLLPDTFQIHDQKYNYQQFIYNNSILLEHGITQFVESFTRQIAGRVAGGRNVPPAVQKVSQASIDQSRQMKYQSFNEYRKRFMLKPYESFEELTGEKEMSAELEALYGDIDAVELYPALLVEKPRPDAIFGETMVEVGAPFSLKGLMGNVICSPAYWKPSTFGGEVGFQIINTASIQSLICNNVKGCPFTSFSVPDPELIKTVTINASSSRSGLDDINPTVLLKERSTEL
The experiment in a line: Inhibitory activity against microsomal h-COX2 (PGE2 by EIA). Format: biochemical. The note with it: microsomal preparation from baculovirus infected SF9 cells; 0.1 μM arachidonic acid; read-out: COX-2 IC50. Here is the method:
Inhibitory activity against microsomal h-COX2 was assessed against a microsomal preparation from baculovirus infected SF9 cells. An aliquot of microsomal preparation was thawed slowly on ice and a 1/40,000 dilution prepared from it into the assay buffer (sterile water, degassed with argon containing 100 mM HEPES (pH 7.4), 10 mM EDTA (pH7.4), 1 mM phenol, 1 mM reduced glutathione, 20 mg/ml gelatin and 0.001 mM Hematin). Once diluted the enzyme solution was then sonicated for 5 seconds (Branson sonicator, setting 4, 1 cm tip) to ensure a homogeneous suspension. […] Plates were then mixed and incubated at room temperature for 1 hour. Following the incubation period, 40 μl of 0.5 μM arachidonic acid was added to each well to give a final concentration of 0.1 μM. Plates were then mixed and incubated for exactly 10 minutes (room temperature) prior to addition of 25 μl 1M HCl (hydrochloric acid) to each well to stop the reaction. 25 μl of 1M NaOH (sodium hydroxide) was then added to each well to neutralise the solution prior to determination of PGE2 levels by enzyme immunoassay (EIA).
For `Cc1c(-c2ccc(S(C)(=O)=O)cc2)nc(NCc2ccccc2)nc1C(F)(F)F` [Example 1, N-benzyl-5-methyl-4-[4-(methylsulfonyl)phenyl]-6-(trifluoromethyl)pyrimidin-2-amine], the IC50 was determined as 1.3 µM.

In the case of `Cc1c(-c2ccc(S(C)(=O)=O)cc2)nc(NCC(C)C)nc1C(F)(F)F` [Example 2, N-isobutyl-5-methyl-4-[4-(methylsulfonyl)phenyl]-6-(trifluoromethyl)pyrimidin-2-amine], the IC50 is 6.6 µM.

As to `Cc1c(-c2ccc(S(C)(=O)=O)cc2)nc(NCc2ccccc2O)nc1C(F)(F)F` [Example 3], the IC50 was 2.5 µM.

Take `Cc1c(-c2ccc(S(C)(=O)=O)cc2)nc(NCc2cccs2)nc1C(F)(F)F` [Example 4]: the IC50 worked out at 0.56 µM.

Take `Cc1ccc(CNc2nc(-c3ccc(S(C)(=O)=O)cc3)c(C)c(C(F)(F)F)n2)cc1` [Example 5]: the IC50 amounted to 15.3 µM.

Take `Cc1c(-c2ccc(S(C)(=O)=O)cc2)nc(NC2CCCCC2)nc1C(F)(F)F` [Example 6]: the IC50 stood at 2.3 µM.

For the molecule `Cc1c(-c2ccc(S(C)(=O)=O)cc2)nc(NCC2CCOCC2)nc1C(F)(F)F` [Example 7], the half-maximal inhibitory concentration (IC50) was greater than 100 µM.

In the case of `CCCNc1nc(-c2ccc(S(C)(=O)=O)cc2)c(C)c(C(F)(F)F)n1` [Example 8], the IC50 was 26.7 µM.

For the molecule `Cc1c(-c2ccc(S(C)(=O)=O)cc2)nc(NCc2ccccn2)nc1C(F)(F)F` [Example 9], the IC50 is greater than 98.6 µM.

For the molecule `Cc1c(-c2ccc(S(C)(=O)=O)cc2)nc(NCCc2ccccn2)nc1C(F)(F)F` [Example 10], the concentration for half-maximal inhibition (IC50) came to 71.2 µM.

Consider `CCCCNc1nc(-c2ccc(S(C)(=O)=O)cc2)c(C)c(C(F)(F)F)n1` [Example 11], for which the IC50 worked out at 6.3 µM.

Staying with this assay, now noted: read-out: COX-2% inhibition.
On to `Cc1c(-c2ccc(S(C)(=O)=O)cc2)nc(NCc2ccccc2)nc1C(F)(F)F` [Example 1, N-benzyl-5-methyl-4-[4-(methylsulfonyl)phenyl]-6-(trifluoromethyl)pyrimidin-2-amine], for which the inhibition at 10 µM was determined as 61%.

`CCCCNc1nc(-c2ccc(S(C)(=O)=O)cc2)c(C)c(C(F)(F)F)n1` [Example 11]: the inhibition at 10 µM is 43%.
